Columns and labels:
[1] = molecular target: T1, GST-RIPK2 fusion protein (human RIPK2, amino acids 1-310) (Homo sapiens, UniProt O43353); test: RIPK2 binding competition assay (TR-FRET, Tracer 199 displacement); details: 10 nM Tracer 199, 1 nM GST-RIPK2, read-out: RIPK2 IC50
T1 construct: made in house; host or cells: baculovirus infected Sf9 cells
In short: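 IC50 derived from the TR-FRET emission ratio (665/620 nm, 337 nm excitation), normalized with no-inhibitor and no-enzyme controls. Incubation 45 min at 22 °C, pH 7.5 Tris buffer, with final 10 nM tracer, 1 nM Sf9-expressed GST-RIPK2 fragment (aa 1-310) and 0.5 nM Tb-labelled anti-GST.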

[2] = molecular target: T2, binding of His-XIAP(BIR2)-avi fusion protein to GST-RIPK2 fusion protein (RIPK2/XIAP) (Homo sapiens, UniProt O43353); test: RIPK2-XIAP binding competition PPI assay (TR-FRET); details: RIPK2/XIAP binding competition PPI assay; for Emax: Amax, read-out: PPI Amax bin; for IC50: read-out: PPI IC50 bin
T2 construct: made in house; host or cells: baculovirus infected Sf9 cells
T2 sequence (O43353 1-310 limits assumed): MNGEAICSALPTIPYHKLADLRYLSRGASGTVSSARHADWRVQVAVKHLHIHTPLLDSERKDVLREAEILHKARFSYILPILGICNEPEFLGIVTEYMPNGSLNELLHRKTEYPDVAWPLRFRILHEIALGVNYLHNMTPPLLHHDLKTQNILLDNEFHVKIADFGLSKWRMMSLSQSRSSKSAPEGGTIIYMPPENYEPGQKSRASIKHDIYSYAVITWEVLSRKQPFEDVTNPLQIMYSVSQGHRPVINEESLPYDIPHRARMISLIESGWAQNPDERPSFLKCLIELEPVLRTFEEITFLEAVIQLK
In short: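 Compounds (in DMSO, 100-fold stock) incubated 120 min at 23 °C with 1 nM GST-RIPK2 (aa 1-310) and 25 nM His-XIAP(BIR2 aa 152-231)-avi, plus anti-His-XL665 and anti-GST-Tb, in pH 7.5 Tris buffer. Read-out: 665/520 nm emission ratio. Normalized to no-inhibitor (0%) and 50 nM GSK583 (−100%); Amax binned A–D.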

[3] = test system: NF-κB pathway (SEAP) in THP1-Dual cells; test: THP-1 Dual cell SEAP assay (L18-MDP stimulated); assay type: cell-based; details: Homo sapiens, THP1-Dual, read-out: NF-κB THP1 IC50 bin
In short: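 IC50 values derive from non-linear regression of % inhibition, calculated against DMSO/L18-MDP-treated wells after media-only subtraction. NF-κB SEAP activity was read at OD 620-655 nm (QUANTI-Blue, 2 h, 37 °C) from supernatants of THP1-Dual cells. Cells had been compound-treated 30 min before overnight (20-24 h) stimulation with 10 ng/mL final L18-MDP.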

T1 sequence (O43353 1-310): as the sequence (O43353 1-310 limits assumed) above

COc1cc2ncc(-c3cc(F)c(OC)c(NS(=O)(=O)c4ccccc4)c3)n2cc1S(=O)(=O)C(C)(C)C [Example 281, N-(5-(6-(tert-butylsulfonyl)-7-methoxyimidazo[1,2-a]pyridin-3-yl)-3-fluoro-2-methoxyphenyl)benzenes ulfonamide]
IC50 [1]: < 1 nM | Emax [2]: > 80% | IC50 [2]: < 1 nM | IC50 [3]: < 50 nM

COc1cc2ncc(-c3cc(F)c(OC)c(NC(=O)c4cnn(C)c4)c3)n2cc1S(=O)(=O)C(C)(C)C [Example 296, N-(5-(6-(tert-butylsulfonyl)-7-methoxyimidazo[1,2-a]pyridin-3-yl)-3-fluoro-2-methoxyphenyl)-1-methyl-1H-pyrazole-4-carboxamide]
IC50 [1]: > 20 nM | Emax [2]: > 80% | IC50 [2]: > 20 nM | IC50 [3]: > 1000 nM

COc1cc2ncc(-c3cc(F)c(OC)c(NC(=O)Cc4cnn(C)c4)c3)n2cc1S(=O)(=O)C(C)(C)C [Example 297, N-(5-(6-(tert-butylsulfonyl)-7-methoxyimidazo[1,2-a]pyridin-3-yl)-3-fluoro-2-methoxyphenyl)-2-(1-methyl-1H-pyrazol-4-yl)acetamide]
IC50 [1]: 1 to 2.5 nM | Emax [2]: > 80% | IC50 [2]: 1 to 2.5 nM | IC50 [3]: 50 to 250 nM

COc1cc2ncc(-c3cc(F)c(OC)c(NC(=O)Cc4ccn(C)n4)c3)n2cc1S(=O)(=O)C(C)(C)C [Example 298, N-(5-(6-(tert-butylsulfonyl)-7-methoxyimidazo[1,2-a]pyridin-3-yl)-3-fluoro-2-methoxyphenyl)-2-(1-methyl-1H-pyrazol-3-yl)acetamide]
IC50 [1]: 2.5 to 20 nM | Emax [2]: 55 to 80% | IC50 [2]: 2.5 to 20 nM | IC50 [3]: 250 to 1000 nM

CC(C)(C)S(=O)(=O)c1cn2c(-c3cc(Cl)c(N)nc3F)cnc2cc1OCC(=O)O [Example 299, 2-((3-(6-amino-5-chloro-2-fluoropyridin-3-yl)-6-(tert-butylsulfonyl)imidazo[1,2-a]pyridin-7-yl)oxy)acetic acid]
IC50 [1]: > 20 nM | Emax [2]: > 80% | IC50 [2]: > 20 nM | IC50 [3]: > 1000 nM

COc1cc2ncc(-c3cc(F)c(OC)c(NS(=O)(=O)c4cnn(CCO)c4)c3)n2cc1C(F)(F)F [Example 304, N-(3-fluoro-2-methoxy-5-(7-methoxy-6-(trifluoromethyl)imidazo[1,2-a]pyridin-3-yl)phenyl)-1-(2-hydroxyethyl)-1H-pyrazole-4-sulfonamide]
IC50 [1]: 2.5 to 20 nM | Emax [2]: > 80% | IC50 [2]: 2.5 to 20 nM | IC50 [3]: > 1000 nM
